Data set [1] is filed under the species Cavia porcellus. Nature of the data set: Concentration required to elevate the threshold of alternating current to induce arrhythmia in isolated guinea pig heart by 50%; Vl = Very low activity. It is filed as functional.
A short description of data set [2]: physchem. The conditions noted are these: octanol/water.
Description: Partition coefficient (logP) (HPLC)
The nature of data set [3]: physchem.
Description: Dissociation constant (pKa)
The species entered for data set [4] is Cavia porcellus.
Description: Elevation of the threshold alternating current to induce arrhythmia in isolated guinea pig heart.
Data set [5] is filed under the species Bos taurus. The data set can be described thus: Concentration at which Ca+ binding to phosphatidylserine monolayers is reduced to 50% of control. It is filed as functional.
The species entered for data set [6] is Cavia porcellus. Nature of the data set: Concentration required to elevate the threshold of alternating current to induce arrhythmia in isolated guinea pig heart by 50%; VL = Very low activity. It is filed as functional.
A short description of data set [7]: Drug induced phase transition temperature with DPPA liposome. It is filed as functional.
The species entered for data set [8] is Bos taurus. The data set can be described thus: Concentration at which Ca+ binding to phosphatidylserine monolayers from bovine brain is reduced to 50% of control. It is filed as functional.
The species named for data set [9] is Cavia porcellus. Nature of the data set: Concentration required to elevate the threshold of alternating current to induce arrhythmia in isolated guinea pig heart by 50%; Vl = very low activity. It is filed as functional.

Each structure is given as a SMILES string.

With `COc1ccc(-c2ccc(CCC[N+](C)(C)C)cc2)cc1`, the “Log AC50” value in the data set listed under Cavia porcellus [1] is given as “Very low activity”. Besides, the logP in “physchem [2]” amounted to 2.17.

Consider `COc1ccc(CCCN(C)C)cc1Cl.Cl`, for which, in the data set “physchem [3]”, the pKa amounted to 10.8. Further, in the data set listed under Cavia porcellus [4], the “Log AC50” value was 4.44 uM. For the same compound, in the data set “physchem [2]”, the logP is 1.92.

Take `CN(C)CCCc1cccnc1.Cl`: the “Log IC50” value in the data set listed under Bos taurus [5] is given as 3.6 uM. The compound also gave a pKa in “physchem [3]” of 10.7. Further, the “Log AC50” value in the data set filed under Cavia porcellus [6] was “Very low activity”. For the same compound, the logP in the data set “physchem [2]” stood at 0.57.

In the case of `CN(C)CCCc1ccc(-c2ccc(O)cc2)cc1.Cl`, the “Log IC50” value in the data set filed under Bos taurus [5] was determined as 4.4 uM. In addition, the Tt in [7] is 349 k. The pKa in “physchem [3]” was found to be 9.32. The “Log AC50” value in the data set listed under Cavia porcellus [4] was 4.43 uM. The same compound registered a logP in “physchem [2]” of 2.1.

In the data set “physchem [3]”, `CN(C)CCCc1ccc(-c2ccc(Cl)cc2)cc1.Cl` had a pKa of 9.96. Also, the “Log AC50” value in the data set filed under Cavia porcellus [4] is listed as 5.7 uM. The same compound registered a logP in “physchem [2]” of 3.45.

Turning to `CN(C)CCCc1ccc(-c2ccccc2)cc1.Cl`, the “Log IC50” value in the data set listed under Bos taurus [5] amounted to 5.4 uM. In [7], this compound showed a Tt of 285 k. In “physchem [3]”, this compound came in with a pKa of 9.88. Besides, the “Log AC50” value in the data set filed under Cavia porcellus [4] was determined as 4.8 uM. Moreover, the lipophilicity (logP) in “physchem [2]” is 2.99.

As for `CN(C)CCCc1ccc2ccccc2c1.Cl`, the “Log IC50” value in the data set listed under Bos taurus [5] came out at 4.35 uM. The same compound yielded a Tt in [7] of 297 k. This compound yielded a pKa in the data set “physchem [3]” of 10.3. For the same compound, in the data set listed under Cavia porcellus [4], the “Log AC50” value came to 4.52 uM. The same compound came in with a lipophilicity (logP) in the data set “physchem [2]” of 2.62.

In the case of `CN(C)CCCc1ccc(Cl)cc1.Cl`, in [7], the Tt came to 302 k. Besides, in “physchem [3]”, the pKa was determined as 10.6. In the data set listed under Bos taurus [8], the “Log IC50” value was found to be 3.85 uM. In the data set filed under Cavia porcellus [4], the “Log AC50” value was 4.31 uM. The logP in the data set “physchem [2]” stood at 2.21.

As to `CN(C)CCCc1ccccc1.Cl`, the “Log IC50” value in the data set listed under Bos taurus [5] stood at 3 uM. The same compound returned a Tt in data set [7] of 3.8 k. Moreover, in the data set “physchem [3]”, the pKa is 11. Also, the “Log AC50” value in the data set filed under Cavia porcellus [4] is given as 3.55 uM. Also, in “physchem [2]”, the lipophilicity (logP) was found to be 1.5.

Compound `CCOc1ccc(-c2ccc(CCCN(C)C)cc2)cc1.Cl` returned a pKa in “physchem [3]” of 9.82. For the same compound, the “Log AC50” value in the data set listed under Cavia porcellus [4] is reported as 4.8 uM. Besides, the logP in “physchem [2]” was found to be 3.3.

Consider `CN(C)CC(Cc1ccccc1)c1ccccc1.Cl` (centres undefined), for which the Tt in [7] was found to be 309 k. Also, in the data set “physchem [3]”, the pKa is 9.93. The “Log AC50” value in the data set filed under Cavia porcellus [4] came to 4.13 uM. Besides, in the data set “physchem [2]”, the logP came out at 2.59.

Turning to `CN(C)CCCc1ccc([N+](=O)[O-])cc1.Cl`, the “Log IC50” value in the data set filed under Bos taurus [5] worked out at 4.15 uM. This compound gave a Tt in [7] of 307 k. The pKa in “physchem [3]” was determined as 10.7. For the same compound, in the data set listed under Cavia porcellus [9], the “Log AC50” value is recorded as “Very low activity”. In “physchem [2]”, this compound displayed a log partition coefficient (logP) of 1.5.

Compound `CN(C)CCCc1ccc(O)c(Cl)c1.Cl` showed a Tt in data set [7] of 294 k. Also, the “Log AC50” value in the data set filed under Cavia porcellus [4] was found to be 3.82 uM. Also, in “physchem [2]”, the lipophilicity (logP) came to 0.97.

For the compound `CN(C)CCC(c1ccccc1)c1ccc(-c2ccccc2)cc1` (centres undefined), in [7], the Tt amounted to 294 k. In the data set “physchem [3]”, this compound had a pKa of 9.85. Also, the lipophilicity (logP) in “physchem [2]” stood at 3.36.

`CN(C)CCCc1ccc(Br)cc1` yielded a pKa in the data set “physchem [3]” of 10.6. In addition, the lipophilicity (logP) in the data set “physchem [2]” stood at 2.37.

Take `CCc1ccc(CCCN(C)C)cc1.Cl`: the Tt in data set [7] came out at 300 k. Besides, the pKa in “physchem [3]” came out at 10.6. Also, the “Log AC50” value in the data set filed under Cavia porcellus [4] stood at 3.94 uM. For the same compound, the lipophilicity (logP) in “physchem [2]” was found to be 2.45.

For the compound `COc1ccc(-c2ccc(CCCN(C)C)cc2)cc1.Cl`, the “Log IC50” value in the data set filed under Bos taurus [5] was 5.4 uM. This compound also came in with a Tt in [7] of 296 k. This compound returned a pKa in the data set “physchem [3]” of 9.85. Moreover, the “Log AC50” value in the data set listed under Cavia porcellus [4] is given as 4.96 uM. For the same compound, in the data set “physchem [2]”, the log partition coefficient (logP) stood at 2.95.

For `CN(C)CCC(c1ccccc1)c1ccccc1.Cl`, the “Log IC50” value in the data set filed under Bos taurus [5] was 4.85 uM. For the same compound, the Tt in data set [7] turned out to be 308 k. The compound further registered a pKa in the data set “physchem [3]” of 10. The “Log AC50” value in the data set filed under Cavia porcellus [4] came out at 4.37 uM. The compound further registered a log partition coefficient (logP) in the data set “physchem [2]” of 2.76.

For the compound `Cc1ccc(CCCN(C)C)cc1.Cl`, the Tt in data set [7] was determined as 303 k. For the same compound, the pKa in the data set “physchem [3]” was determined as 10.8. Moreover, in the data set filed under Cavia porcellus [4], the “Log AC50” value was 4.02 uM. The logP in the data set “physchem [2]” came out at 2.

With `CCCc1ccc(CCCN(C)C)cc1.Cl`, in [7], the Tt worked out at 295 k. This compound also registered a pKa in the data set “physchem [3]” of 10.5. Besides, in the data set listed under Cavia porcellus [4], the “Log AC50” value worked out at 4.85 uM. For the same compound, in the data set “physchem [2]”, the lipophilicity (logP) was 2.89.

On to `CN(C)CCCc1ccc(O)cc1.Cl`, for which the “Log IC50” value in the data set filed under Bos taurus [5] is 2.72 uM. This compound displayed a Tt in data set [7] of 314 k. Further, the “Log AC50” value in the data set filed under Cavia porcellus [4] is 3.29 uM. Besides, the logP in “physchem [2]” was determined as 0.35.

For `C[N+](C)(C)CCCc1ccccc1.[Cl-]`, the “Log IC50” value in the data set filed under Bos taurus [5] is recorded as 3.4 uM. This compound also registered a Tt in data set [7] of 307 k. Moreover, the “Log AC50” value in the data set listed under Cavia porcellus [1] was “Very low activity”. The compound further gave a logP in the data set “physchem [2]” of 0.44.

On to `CC(C)c1ccc(CCCN(C)C)cc1.Cl`, for which the Tt in [7] is 299 k. Also, the pKa in “physchem [3]” came out at 10.5. For the same compound, the “Log AC50” value in the data set filed under Cavia porcellus [4] was determined as 4.22 uM. In “physchem [2]”, this compound had a logP of 2.75.

`CN(C)CCCc1ccc(C(C)(C)C)cc1.Cl`: the “Log IC50” value in the data set filed under Bos taurus [5] was 5.4 uM. Moreover, the Tt in data set [7] was found to be 297 k. In “physchem [3]”, this compound yielded a pKa of 10. In addition, the “Log AC50” value in the data set listed under Cavia porcellus [4] turned out to be 4.52 uM. In addition, in “physchem [2]”, the logP turned out to be 2.96.

Consider `CN(C)CCCc1ccc(N)cc1.Cl`, for which the pKa in the data set “physchem [3]” stood at 10.9. The “Log AC50” value in the data set filed under Cavia porcellus [4] was found to be 3 uM. The same compound yielded a logP in “physchem [2]” of 0.12.

What is called logP is a log measure of how a compound divides between an organic and an aqueous phase. The low end stands for lower lipophilicity, the high end for higher lipophilicity. In general, pKa refers to the pH at which an ionisable group is half protonated.

The values above are taken from ChEMBL document CHEMBL1132180, “Synthesis, pharmacological and biophysical characterization, and membrane-interaction QSAR analysis of cationic amphiphilic model compounds” (J Med Chem, 1999).
